Assay results as given in US8377434B2, “Cosmetic composition for exfoliating skin keratin” (Amorepacific Corporation, priority 2006, dated 2013).

Tested on: skin
Test: in vivo and ex vivo studies of N-acetyl glucosamine on skin

## CC(=O)N[C@H]1C(O)O[C@H](CO)[C@@H](O)[C@@H]1O (some centres unmarked) [N-acetyl glucosamine]
  production of hyaluronic acid: promote the production of hyaluronic acid
In vivo and ex vivo studies
  improvement of excessive pigmentation, skin tone and barrier function: effective in improving excessive pigmentation, skin tone and barrier function
